Reference: patent US20240326041A1, “MICROFLUIDIC INDUCTION OF RESEARCH BASED NEURAL INJURY” (Worcester Polytechnic Institute, priority 2023, published 2024)

Tests used:
[1] = target: rTRPV4 (Rattus norvegicus, UniProt Q9ERZ8); conditions: commercially available TRPV4 antagonist, vendor description; cited from earlier work
[2] = target: hTRPV4 (Homo sapiens, UniProt Q9HBA0); conditions: commercially available TRPV4 antagonist, vendor description; cited from earlier work
[3] = tested on: C. elegans; experiment: Recovery of neural activity (AWA calcium imaging) after sonication-induced injury; type: in vivo; conditions: wild-type C. elegans, NAC-induced recovery
Method: FIGS. 8A-8C show results of test substances for treatment of an injury induced by the microfluidic device of FIGS. 1-4. Referring to FIGS. 8A-8C, one approach to therapeutic and/or prophylactic neural treatment includes two chemical agents that are diluted to physiological concentrations and administered in liquid form to the test animals using their food. Drug compositions are applied for a series of several hours to allow the biological function of the composition to manifest. Animals are removed from drug administration and allowed to immobilize under anesthetic for a period of ˜60 minutes in a microfluidic device before being injured. […] The described action of the drug composition is to inhibit the ability of calcium influx channels to operate for a period of time before and during the injury, allowing later recovery of the neuron response when the action of the drug composition ceases.

[4] = tested on: C. elegans; experiment: Behavioral state after sonication-induced traumatic injury in microfluidic device; type: in vivo; conditions: 2 hour pre-exposure to 1 mM NAC; initial behavioral data
Method: To injure animals, a continuous flow of buffer fluid is pumped through a microfluidic device 120 having serpentine microchannels in a bath sonicator-induced cavitation field. Animals are trapped in the flow and directed through the cavitation field. Exposure time is determined by channel length and flow velocity. […] Animals are recovered on an agar plate 130 for further transfer and analysis using widefield or high-resolution microscopy, or encapsulated in hydrogel and assessed over time in presence of various pharmacological agents. […] A batch of test subjects is isolated and introduced via the buffer fluid 114 and suitable coupling 116, as depicted at step 404. The microfluidic device 120 including the post array 140 receives the test subjects 152-N, as shown at step 406. Computer-controlled bath sonication induces titratable cavitation conditions within a microfluidic post-array 140. […] Upon removal, animals may be assessed visually for behavioral state according to the following definitions: • Paralysis: movement phenotype characterized by no obvious gross bodily movement. • Twitch: movement phenotype characterized by shaking or convulsions of the body or a substantial part of the main body of the animal.

Sequence of rTRPV4 (Q9ERZ8 whole entry): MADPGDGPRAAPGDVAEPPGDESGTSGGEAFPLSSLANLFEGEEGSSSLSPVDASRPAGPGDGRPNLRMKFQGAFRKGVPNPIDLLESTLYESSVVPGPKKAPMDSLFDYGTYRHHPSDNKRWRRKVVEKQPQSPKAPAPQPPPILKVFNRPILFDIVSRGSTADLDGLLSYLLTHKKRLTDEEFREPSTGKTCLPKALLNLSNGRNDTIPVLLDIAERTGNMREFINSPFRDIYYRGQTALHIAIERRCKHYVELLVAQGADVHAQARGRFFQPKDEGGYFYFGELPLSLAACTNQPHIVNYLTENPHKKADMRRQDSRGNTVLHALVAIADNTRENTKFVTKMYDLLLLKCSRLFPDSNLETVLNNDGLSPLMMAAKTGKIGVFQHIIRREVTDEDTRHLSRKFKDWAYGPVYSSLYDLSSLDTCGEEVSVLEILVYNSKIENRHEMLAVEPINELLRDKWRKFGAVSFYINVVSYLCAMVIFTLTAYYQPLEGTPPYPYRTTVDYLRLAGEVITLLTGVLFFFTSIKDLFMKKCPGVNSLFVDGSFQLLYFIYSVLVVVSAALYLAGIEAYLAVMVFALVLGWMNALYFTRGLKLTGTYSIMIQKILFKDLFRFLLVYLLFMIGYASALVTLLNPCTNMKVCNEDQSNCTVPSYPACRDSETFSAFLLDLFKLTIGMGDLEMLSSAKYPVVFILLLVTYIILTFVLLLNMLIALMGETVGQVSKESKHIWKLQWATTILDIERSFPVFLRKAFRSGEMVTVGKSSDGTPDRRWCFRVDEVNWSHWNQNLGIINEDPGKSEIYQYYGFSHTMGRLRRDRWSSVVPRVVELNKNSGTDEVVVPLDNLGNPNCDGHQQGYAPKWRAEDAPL
Sequence of hTRPV4 (Q9HBA0 whole entry): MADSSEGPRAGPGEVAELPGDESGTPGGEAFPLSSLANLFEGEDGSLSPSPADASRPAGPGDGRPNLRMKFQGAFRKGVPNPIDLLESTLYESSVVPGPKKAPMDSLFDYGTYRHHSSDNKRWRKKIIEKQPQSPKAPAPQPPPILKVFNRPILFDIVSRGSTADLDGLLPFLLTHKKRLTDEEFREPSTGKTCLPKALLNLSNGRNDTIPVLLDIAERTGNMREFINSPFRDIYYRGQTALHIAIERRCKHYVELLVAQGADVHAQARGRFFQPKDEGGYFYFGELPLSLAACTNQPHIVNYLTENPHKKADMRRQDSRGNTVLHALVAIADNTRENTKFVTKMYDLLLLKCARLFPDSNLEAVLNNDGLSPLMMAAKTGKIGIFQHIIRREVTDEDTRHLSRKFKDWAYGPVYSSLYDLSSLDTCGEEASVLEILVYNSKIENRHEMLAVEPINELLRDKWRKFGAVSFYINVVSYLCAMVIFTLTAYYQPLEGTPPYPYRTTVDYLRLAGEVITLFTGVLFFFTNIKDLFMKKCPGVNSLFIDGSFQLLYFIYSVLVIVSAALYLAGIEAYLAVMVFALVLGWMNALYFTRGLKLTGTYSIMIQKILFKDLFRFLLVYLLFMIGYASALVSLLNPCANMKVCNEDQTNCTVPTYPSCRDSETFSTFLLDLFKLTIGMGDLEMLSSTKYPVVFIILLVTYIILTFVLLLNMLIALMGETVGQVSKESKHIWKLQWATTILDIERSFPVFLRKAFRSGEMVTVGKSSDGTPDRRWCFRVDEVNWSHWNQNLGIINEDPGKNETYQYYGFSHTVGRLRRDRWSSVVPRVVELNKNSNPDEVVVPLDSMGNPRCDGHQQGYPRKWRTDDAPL

Compound | IC50 [1] [nM] | IC50 [2] [nM] | calcium transients on recovery after injury [3] | behavioral vulnerability after injury [4]
O=C(NC1(c2ccccc2)CC1)c1c(CN2CCC(N3CCCCC3)CC2)c(-c2cccc(C(F)(F)F)c2)nc2cc(Br)ccc12 [GSK2193874] | 2 | 40 |  | 
CC(=O)N[C@@H](CS)C(=O)O [NAC, N-acetyl-L-cysteine] |  |  | produces calcium transients similar to ‘osm’ mutants | lessens behavioral vulnerability
